# Experiment: photoluminescence quantum yield (fraction); solvent given as SMILES
# [1] = in O=P(c1ccccc1)(c1ccccc1)c1ccccc1Oc1ccccc1P(=O)(c1ccccc1)c1ccccc1
# [2] = in c1cc(-n2c3ccccc3c3ccccc32)cc(-n2c3ccccc3c3ccccc32)c1
smiles,measurement,setting,value
COC(=O)C(Cc1ccc2oc(-c3ccc4c(c3)c3ccccc3n4-c3ccccc3)nc2c1)NC(=O)OC(C)(C)C (stereo not given),photoluminescence quantum yield,in C1CCCCC1,0.76
same,photoluminescence quantum yield,in C1CCOC1,0.84
same,photoluminescence quantum yield,in C1COCCO1,1
same,photoluminescence quantum yield,in CC1CCCO1,0.93
same,photoluminescence quantum yield,in CC1COC(=O)O1,1
same,photoluminescence quantum yield,in CC#N,0.99
same,photoluminescence quantum yield,in CC(C)=O,0.63
same,photoluminescence quantum yield,in CC(C)CC(C)(C)C,0.86
same,photoluminescence quantum yield,in CC(C)CO,1
same,photoluminescence quantum yield,in CC(C)O,1
same,photoluminescence quantum yield,in CC(C)OC(C)C,0.55
same,photoluminescence quantum yield,in CC(O)CO,1
same,photoluminescence quantum yield,in CCC(C)CC,0.59
same,photoluminescence quantum yield,in CCCCC,0.59
same,photoluminescence quantum yield,in CCCCCC,0.58
same,photoluminescence quantum yield,in CCCCCCCCC,0.72
same,photoluminescence quantum yield,in CCCCCCCCCC,0.75
same,photoluminescence quantum yield,in CCCCCCCO,1
same,photoluminescence quantum yield,in CCCCCCO,0.94
same,photoluminescence quantum yield,in CCCCCO,1
same,photoluminescence quantum yield,in CCCCO,1
same,photoluminescence quantum yield,in CCO,1
same,photoluminescence quantum yield,in CCOC(C)=O,0.96
same,photoluminescence quantum yield,in CCOCC,0.68
same,photoluminescence quantum yield,in CN(C)C=O,1
same,photoluminescence quantum yield,in CO,0.99
same,photoluminescence quantum yield,in COCCOC,0.7
same,photoluminescence quantum yield,in CS(C)=O,0.88
same,photoluminescence quantum yield,in Cc1ccccc1,0.78
same,photoluminescence quantum yield,in Cc1ccccc1C,0.92
same,photoluminescence quantum yield,in ClC(Cl)Cl,0.93
same,photoluminescence quantum yield,in ClCCl,0.94
same,photoluminescence quantum yield,in NC=O,0.82
same,photoluminescence quantum yield,in OC1CCCCC1,0.95
same,photoluminescence quantum yield,in OCCO,1
same,photoluminescence quantum yield,in c1ccccc1,0.97
CC1(C)C(/C=C/C=C/C=C/C=C2/N(S(=O)(=O)[O-])c3ccc(S(=O)(=O)[O-])cc3C2(C)C)=[N+](S(=O)(=O)[O-])c2ccc(S(=O)(=O)[O-])cc21,photoluminescence quantum yield,in CO,0.55
same,photoluminescence quantum yield,in O,0.29
c1ccc(N(c2ccccc2)c2ccc3c(ccc4nc5ccc6cc(N(c7ccccc7)c7ccccc7)ccc6c5nc43)c2)cc1,photoluminescence quantum yield,in C1CCCCC1,0.56
same,photoluminescence quantum yield,in C1CCOC1,0.59
same,photoluminescence quantum yield,in CN(C)C=O,0.34
same,photoluminescence quantum yield,in Cc1ccccc1,0.44
same,photoluminescence quantum yield,in ClCCl,0.64
Cc1cc(C)c(-c2nnc(-c3ccc(-n4c5ccccc5c5ccccc54)cc3)o2)c(C)c1,photoluminescence quantum yield,in Cc1ccccc1,0.59
CC(C)[Si](C#Cc1ccc2c(C#C[Si](C(C)C)(C(C)C)C(C)C)cc3c4cc(C#C[Si](C(C)C)(C(C)C)C(C)C)ccc4c(C#C[Si](C(C)C)(C(C)C)C(C)C)cc3c2c1)(C(C)C)C(C)C,photoluminescence quantum yield,in ClCCl,0.741
CCn1c2ccccc2c2cc(/C=C/c3cccc(/C=C/c4ccc5c(c4)c4ccccc4n5CC)[n+]3CCCS(=O)(=O)[O-])ccc21,photoluminescence quantum yield,in C1CCOC1,0.1
same,photoluminescence quantum yield,in CC#N,0.03
same,photoluminescence quantum yield,in CC(C)=O,0.03
same,photoluminescence quantum yield,in Cc1ccccc1,0.08
CC1(C)c2ccccc2N(c2ccc3c(c2)c2cc(N4c5ccccc5C(C)(C)c5ccccc54)cc4c5ccccc5n3c42)c2ccccc21,photoluminescence quantum yield,[1],0.96
COCCN1C(=O)/C(=C/c2cccc(N(C)C)c2)N=C1C,photoluminescence quantum yield,in C1CCOC1,0.13
same,photoluminescence quantum yield,in CC#N,0.04
same,photoluminescence quantum yield,in CCCCCC,0.45
CC(=O)c1ccc(-c2nc3ccc(N(C)C)c(Br)c3s2)cc1,photoluminescence quantum yield,in C1CCCCC1,0.11
same,photoluminescence quantum yield,in CC#N,0.54
same,photoluminescence quantum yield,in CO,0.046
same,photoluminescence quantum yield,in ClC(Cl)Cl,0.82
C(#Cc1ncc(-c2ccccc2)o1)c1ccco1,photoluminescence quantum yield,in ClCCl,0
CCCCCCc1ccc(-n2c3c(c4c2c2c(n4-c4ccc(CCCCCC)cc4)-c4cccc(OC)c4NB2c2ccccc2)B(c2ccccc2)Nc2c(OC)cccc2-3)cc1,photoluminescence quantum yield,in Cc1ccccc1,0.62
Oc1ccc2ccccc2c1/C=N/c1ccccc1/N=C/c1c(O)ccc2ccccc12,photoluminescence quantum yield,in CC#N,0.3
[NH3+]C(Cc1ccc(O)c(O)c1)C(=O)[O-] (stereo not given),photoluminescence quantum yield,in O,0.075
Brc1c(Br)c2ccc3c(Br)c(Br)c4ccc5ccc1c1c5c4c3c21,photoluminescence quantum yield,in C1CCCCC1,0.0012
Cc1cc(C)c(B(c2ccccc2-n2c3ccccc3c3ccccc32)c2c(C)cc(C)cc2C)c(C)c1,photoluminescence quantum yield,in Cc1ccccc1,0.79
F[B-]1(F)n2c(cc3oc4ccccc4c32)C(c2ccc(I)cc2)=C2C=c3oc4ccccc4c3=[N+]21,photoluminescence quantum yield,in ClC(Cl)Cl,0.34
CCOC(=O)c1c2c3c(ccc(F)c3c3cc4ccccc4cc13)N(C)C2=O,photoluminescence quantum yield,in CC#N,0.41
O=C(O)c1ccc(C(=O)O)c2cc3ccccc3cc12,photoluminescence quantum yield,in C1CCOC1,0.61
same,photoluminescence quantum yield,in CN(C)C=O,0.19
COc1ccc(-c2cnc(/C=C/c3ccccc3)o2)cc1OC,photoluminescence quantum yield,in ClCCl,0.52
CCCN1/C(=C/C=C(/C=C/c2sc3ccccc3[n+]2CCC)c2ccc([N+](=O)[O-])cc2)C(C)(C)c2ccccc21,photoluminescence quantum yield,in CO,0.03
same,photoluminescence quantum yield,in CS(C)=O,0.03
same,photoluminescence quantum yield,in O,0.06
CCCC1(CCC)c2cc(C#N)ccc2-c2ccc(C#N)cc21,photoluminescence quantum yield,in C1CCCCC1,0.32
COc1ccc2cc(C3=[N+]4C(=Nc5c(-c6ccc7ccccc7c6)cc(-c6ccc7cc(OC)ccc7c6)n5[B-]4(F)F)C(c4ccc5ccccc5c4)=C3)ccc2c1,photoluminescence quantum yield,in ClCCl,0.29
F[B-]1(F)n2c(/C=C/c3ccc(C(=C(c4ccccc4)c4ccccc4)c4ccccc4)cc3)ccc2C(c2ccc(C(=C(c3ccccc3)c3ccccc3)c3ccccc3)cc2)=C2C=CC(/C=C/c3ccc(C(=C(c4ccccc4)c4ccccc4)c4ccccc4)cc3)=[N+]21,photoluminescence quantum yield,in C1CCOC1,0.503
CSC1=C(C)C2=C(c3ccc(C)cc3)c3c(C)c(Cl)c(C)n3[B-](F)(F)[N+]2=C1C,photoluminescence quantum yield,in C1CCOC1,0.07
O=C(c1ccccc1)c1cc2ccc1CCc1ccc(cc1-c1ccc(N(c3ccccc3)c3ccccc3)cc1)CC2,photoluminescence quantum yield,[2],0.12
O=Cc1ccc(C2=C3C=c4c(oc5ccccc45)=[N+]3[B-](F)(F)n3c2cc2c4ccccc4oc23)cc1,photoluminescence quantum yield,in C1CCCCC1,0.63
same,photoluminescence quantum yield,in C1CCOC1,0.42
same,photoluminescence quantum yield,in CC#N,0.37
same,photoluminescence quantum yield,in CCOC(C)=O,0.39
same,photoluminescence quantum yield,in CN(C)C=O,0.45
same,photoluminescence quantum yield,in CO,0.44
same,photoluminescence quantum yield,in Cc1ccccc1,0.53
same,photoluminescence quantum yield,in ClCCl,0.5
CC1(C)c2ccccc2N(c2ccccc2)c2ccc(-c3ccc(C(=O)c4ccc(-c5ccc6c(c5)C(C)(C)c5ccccc5N6c5ccccc5)cc4)cc3)cc21,photoluminescence quantum yield,[1],0.53
F[B-]1(F)N2C(=Nc3cccc4cccc2c34)c2cccc[n+]21,photoluminescence quantum yield,in CC#N,0.0002
same,photoluminescence quantum yield,in CO,0.007
same,photoluminescence quantum yield,in CS(C)=O,0.0005
same,photoluminescence quantum yield,in Cc1ccccc1,0.006
c1ccc2c(c1)[nH]c1ncccc12,photoluminescence quantum yield,in CC#N,0.47
same,photoluminescence quantum yield,in CCCCCC,0.31
N#C/C(=C(/C#N)c1ccc(-c2ccncc2)cc1)c1ccc(-c2ccncc2)cc1,photoluminescence quantum yield,in ClCCl,0.002
CC(C)(C)c1ccc2c(c1)c1cc(C(C)(C)C)ccc1n2-c1ccc(-c2ccc3c(c2)C2(c4cc(-c5ccc(-n6c7ccc(C(C)(C)C)cc7c7cc(C(C)(C)C)ccc76)cc5)ccc4-3)c3ccccc3S(=O)(=O)c3ccccc32)cc1,photoluminescence quantum yield,in ClCCl,0.88
same,photoluminescence quantum yield,[2],0.83
COc1ccc(-c2ccc(OC)cc2)cc1,photoluminescence quantum yield,in C1CCCCC1,0.31
CCCCCCc1cc(B(c2c(C)cc(C)cc2C)c2c(C)cc(C)cc2C)c(-c2sc(CCCCCC)cc2P(=O)(c2ccccc2)c2ccccc2)s1,photoluminescence quantum yield,in CO,0.17
c1ccc(N(c2ccccc2)c2ccc(-c3nc(-c4ccc(N(c5ccccc5)c5ccccc5)cc4)c4ccccc4n3)cc2)cc1,photoluminescence quantum yield,in ClCCl,0.3
Cc1cc(C)c2c(c1)c1cc(C)cc(C)c1n2-c1ccc2c(c1)Sc1cc3c(cc1B2c1c(C(C)C)cc(C(C)C)cc1C(C)C)B(c1c(C(C)C)cc(C(C)C)cc1C(C)C)c1ccccc1S3,photoluminescence quantum yield,in Cc1ccccc1,0.17
same,photoluminescence quantum yield,in O=P(c1ccccc1)(c1ccccc1)c1ccc2oc3ccc(P(=O)(c4ccccc4)c4ccccc4)cc3c2c1,0.93
F[B-]1(F)n2cccc2C(c2ccccc2)=C2C=CC(c3cccc(OC4=[N+]5C(=C(c6ccccc6)c6cc(Br)c(Br)n6[B-]5(F)F)C=C4Br)c3)=[N+]21,photoluminescence quantum yield,in ClC(Cl)Cl,0.28
CCCCCCCCCCCCN1C(=O)c2c(c3ccc4cc(-c5ccc(-c6ccccc6)cc5)c(OC)cc4c3c3c2ccc2cc(-c4ccc(-c5ccccc5)cc4)c(OC)cc23)C1=O,photoluminescence quantum yield,in ClCCl,0.17
CC(C)[Si](C#Cc1c2ccccc2c(C#C[Si](C(C)C)(C(C)C)C(C)C)c2nc3c(ccc4ccccc43)nc12)(C(C)C)C(C)C,photoluminescence quantum yield,in CCCCCC,0.51
O=Cc1ccc(C2=Cc3ccccc3P2(=O)c2ccccc2)cc1 (stereo not given),photoluminescence quantum yield,in ClCCl,0.056
c1ccc(-c2nc(-c3c[nH]c4ccccc34)n3ccccc23)cc1,photoluminescence quantum yield,in ClCCl,0.162
CC1(C)c2ccccc2N(c2ccc(-c3nc4c(C#N)ccc(C#N)c4nc3-c3ccc(N4c5ccccc5C(C)(C)c5ccccc54)cc3)cc2)c2ccccc21,photoluminescence quantum yield,in Cc1ccccc1,0.72
COc1cc(/C=C/c2ccccc2)cc(OC)c1,photoluminescence quantum yield,in C1CCCCC1,0.18
same,photoluminescence quantum yield,in CC#N,0.32
same,photoluminescence quantum yield,in CC(C)O,0.27
same,photoluminescence quantum yield,in CCCCOCCCC,0.26
same,photoluminescence quantum yield,in CCOC(C)=O,0.29
same,photoluminescence quantum yield,in CCOCC,0.27
CCN(CC)c1ccc2cc(-c3nc4ccccc4n3-c3ccccc3)c(=O)oc2c1,photoluminescence quantum yield,in ClCCl,0.94
CSc1cc(-c2cc3cc4c5c(c3oc2=O)CCCN5CCC4)oc(=O)c1C#N,photoluminescence quantum yield,in C1CCOC1,0.9
same,photoluminescence quantum yield,in CC#N,0.29
same,photoluminescence quantum yield,in CC(C)=O,0.43
same,photoluminescence quantum yield,in CCOC(C)=O,0.67
same,photoluminescence quantum yield,in CN(C)C=O,0.26
same,photoluminescence quantum yield,in CO,0.22
same,photoluminescence quantum yield,in CS(C)=O,0.29
same,photoluminescence quantum yield,in Cc1ccccc1,0.71
same,photoluminescence quantum yield,in ClC(Cl)Cl,0.53
same,photoluminescence quantum yield,in ClCCl,0.63
COc1ccc2c(c1)c1ccccc1n2-c1nc2ccccc2nc1-n1c2ccccc2c2cc(OC)ccc21,photoluminescence quantum yield,in Cc1ccccc1,0.13
COc1ccc(C2=C(C)C3=C(c4c(-c5ccccn5)nc5ccccn45)c4c(C)c(-c5ccc(OC)cc5)c(C)n4[B-](F)(F)[N+]3=C2C)cc1,photoluminescence quantum yield,in ClCCl,0.416
C(#Cc1cc(C#Cc2ccccc2)c(C#Cc2ccccc2)c(C#Cc2ccccc2)c1C#Cc1ccccc1)c1ccccc1,photoluminescence quantum yield,in ClCCl,0.26
